Laboratory results as given in the supplement of paper PMC10307832.

Key:
Test in all cases: relative viability (nuclei count vs DMSO), 5 days (fraction); higher = more cells survive
NCI-H2087 = system: NCI-H2087
Summary of the method: (§1)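 One day after seeding in 1536-well plates, lung cancer cell lines were dosed by pin tool. Dosing was either single-drug or a fixed anchor-drug dose plus five library-drug doses (not always all listed) in √10 steps. After 5 days, nuclei were stained in one fix-and-stain step and counted on 4× images, and relative viability is the nuclei count of treated wells over that of vehicle wells, given as the median of duplicate plates.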

H3255 = system: H3255
Summary of the method: as §1

NCI-H322M = system: NCI-H322M
Summary of the method: as §1

PC-14 = system: PC-14
Summary of the method: as §1

PC-3 [JPC-3] = system: PC-3 [JPC-3]
Summary of the method: as §1

NCI-H1792 = system: NCI-H1792
Summary of the method: as §1

NCI-H1355 = system: NCI-H1355
Summary of the method: as §1

LK-2 = system: LK-2
Summary of the method: as §1

NCI-H2228 = system: NCI-H2228
Summary of the method: as §1

NCI-H1666 = system: NCI-H1666
Summary of the method: as §1

UMC-11 = system: UMC-11
Summary of the method: as §1

NCI-H838 = system: NCI-H838
Summary of the method: as §1

NCI-H661 = system: NCI-H661
Summary of the method: as §1

NCI-H1651 = system: NCI-H1651
Summary of the method: as §1

ABC-1 = system: ABC-1
Summary of the method: as §1

CAL-12T = system: CAL-12T
Summary of the method: as §1

A-427 = system: A-427
Summary of the method: as §1

NCI-H2085 = system: NCI-H2085
Summary of the method: as §1

NCI-H1395 = system: NCI-H1395
Summary of the method: as §1

NCI-H358 = system: NCI-H358
Summary of the method: as §1

SK-MES-1 = system: SK-MES-1
Summary of the method: as §1

NCI-H1915 = system: NCI-H1915
Summary of the method: as §1

LCLC-97TM1 = system: LCLC-97TM1
Summary of the method: as §1

Q: For O=C(O)CCCCC(CCSCc1ccccc1)SCc1ccccc1 (stereo not given) [CPI-613] + CS(=O)(=O)CCNCc1ccc(-c2ccc3ncnc(Nc4ccc(OCc5cccc(F)c5)c(Cl)c4)c3c2)o1 [Lapatinib] (partner 2 µM), which relative viability (NCI-H2087; first compound 5 µM) is on record?
A: 1.06

Q: What about the relative viability (NCI-H2087; first compound 15.81 µM) of the same compound?
A: 0.934

Q: What about the relative viability (NCI-H2087; first compound 50 µM) of the same compound?
A: 0.72

Q: What about the relative viability (NCI-H2087; first compound 158.11 µM) of the same compound?
A: 0.525

Q: What about the relative viability (NCI-H2087; first compound 500 µM) of the same compound?
A: 0.012

Q: What about the relative viability (H3255; first compound 5 µM) of the same compound?
A: 0.234

Q: What about the relative viability (H3255; first compound 15.81 µM) of the same compound?
A: 0.253

Q: And the relative viability (H3255; first compound 50 µM)?
A: 0.291

Q: What about the relative viability (H3255; first compound 158.11 µM) of the same compound?
A: 0.256

Q: And the relative viability (H3255; first compound 500 µM)?
A: 0.25

Q: And the relative viability (NCI-H322M; first compound 5 µM)?
A: 0.577

Q: And the relative viability (NCI-H322M; first compound 15.81 µM)?
A: 0.485

Q: What about the relative viability (NCI-H322M; first compound 50 µM) of the same compound?
A: 0.572

Q: And the relative viability (NCI-H322M; first compound 158.11 µM)?
A: 0.552

Q: And the relative viability (NCI-H322M; first compound 500 µM)?
A: 0.707

Q: And the relative viability (PC-14; first compound 5 µM)?
A: 0.347

Q: And the relative viability (PC-14; first compound 15.81 µM)?
A: 0.307

Q: What about the relative viability (PC-14; first compound 50 µM) of the same compound?
A: 0.303

Q: What about the relative viability (PC-14; first compound 158.11 µM) of the same compound?
A: 0.251

Q: And the relative viability (PC-14; first compound 500 µM)?
A: 0.259

Q: And the relative viability (PC-3 [JPC-3]; first compound 5 µM)?
A: 0.493

Q: And the relative viability (PC-3 [JPC-3]; first compound 15.81 µM)?
A: 0.439

Q: And the relative viability (PC-3 [JPC-3]; first compound 50 µM)?
A: 0.425

Q: And the relative viability (PC-3 [JPC-3]; first compound 158.11 µM)?
A: 0.415

Q: And the relative viability (PC-3 [JPC-3]; first compound 500 µM)?
A: 0.407

Q: What about the relative viability (NCI-H1792; first compound 5 µM) of the same compound?
A: 0.841

Q: What about the relative viability (NCI-H1792; first compound 15.81 µM) of the same compound?
A: 0.846

Q: And the relative viability (NCI-H1792; first compound 50 µM)?
A: 0.838

Q: And the relative viability (NCI-H1792; first compound 158.11 µM)?
A: 0.72

Q: What about the relative viability (NCI-H1792; first compound 500 µM) of the same compound?
A: 0.9

Q: What about the relative viability (NCI-H1355; first compound 5 µM) of the same compound?
A: 1.02

Q: And the relative viability (NCI-H1355; first compound 15.81 µM)?
A: 0.872

Q: And the relative viability (NCI-H1355; first compound 50 µM)?
A: 0.979

Q: What about the relative viability (NCI-H1355; first compound 158.11 µM) of the same compound?
A: 0.642

Q: What about the relative viability (NCI-H1355; first compound 500 µM) of the same compound?
A: 0.589

Q: And the relative viability (LK-2; first compound 5 µM)?
A: 0.967

Q: What about the relative viability (LK-2; first compound 15.81 µM) of the same compound?
A: 0.864

Q: And the relative viability (LK-2; first compound 50 µM)?
A: 0.876

Q: And the relative viability (LK-2; first compound 158.11 µM)?
A: 0.905

Q: What about the relative viability (LK-2; first compound 500 µM) of the same compound?
A: 0.853

Q: And the relative viability (NCI-H2228; first compound 5 µM)?
A: 0.817

Q: What about the relative viability (NCI-H2228; first compound 15.81 µM) of the same compound?
A: 0.979

Q: And the relative viability (NCI-H2228; first compound 50 µM)?
A: 0.832

Q: And the relative viability (NCI-H2228; first compound 158.11 µM)?
A: 0.406

Q: What about the relative viability (NCI-H2228; first compound 500 µM) of the same compound?
A: 0.0151

Q: What about the relative viability (NCI-H1666; first compound 5 µM) of the same compound?
A: 0.629

Q: What about the relative viability (NCI-H1666; first compound 15.81 µM) of the same compound?
A: 0.555

Q: What about the relative viability (NCI-H1666; first compound 50 µM) of the same compound?
A: 0.656

Q: What about the relative viability (NCI-H1666; first compound 158.11 µM) of the same compound?
A: 0.162

Q: And the relative viability (NCI-H1666; first compound 500 µM)?
A: 0.109

Q: What about the relative viability (UMC-11; first compound 5 µM) of the same compound?
A: 1.08

Q: And the relative viability (UMC-11; first compound 15.81 µM)?
A: 1.11

Q: What about the relative viability (UMC-11; first compound 50 µM) of the same compound?
A: 0.789

Q: And the relative viability (UMC-11; first compound 158.11 µM)?
A: 0.438

Q: And the relative viability (UMC-11; first compound 500 µM)?
A: 0.119

Q: What about the relative viability (NCI-H838; first compound 5 µM) of the same compound?
A: 0.862

Q: What about the relative viability (NCI-H838; first compound 15.81 µM) of the same compound?
A: 0.783

Q: What about the relative viability (NCI-H838; first compound 50 µM) of the same compound?
A: 0.846

Q: And the relative viability (NCI-H838; first compound 158.11 µM)?
A: 0.601

Q: What about the relative viability (NCI-H838; first compound 500 µM) of the same compound?
A: 0.0634

Q: And the relative viability (NCI-H661; first compound 5 µM)?
A: 0.419

Q: What about the relative viability (NCI-H661; first compound 15.81 µM) of the same compound?
A: 0.367

Q: And the relative viability (NCI-H661; first compound 50 µM)?
A: 0.581

Q: What about the relative viability (NCI-H661; first compound 158.11 µM) of the same compound?
A: 0.49

Q: And the relative viability (NCI-H661; first compound 500 µM)?
A: 0.576

Q: And the relative viability (NCI-H1651; first compound 5 µM)?
A: 0.732

Q: What about the relative viability (NCI-H1651; first compound 15.81 µM) of the same compound?
A: 0.71

Q: What about the relative viability (NCI-H1651; first compound 50 µM) of the same compound?
A: 0.781

Q: What about the relative viability (NCI-H1651; first compound 158.11 µM) of the same compound?
A: 0.312

Q: And the relative viability (NCI-H1651; first compound 500 µM)?
A: 0.0775

Q: And the relative viability (ABC-1; first compound 5 µM)?
A: 1

Q: What about the relative viability (ABC-1; first compound 15.81 µM) of the same compound?
A: 0.948

Q: What about the relative viability (ABC-1; first compound 50 µM) of the same compound?
A: 1.33

Q: What about the relative viability (ABC-1; first compound 158.11 µM) of the same compound?
A: 1.27

Q: What about the relative viability (ABC-1; first compound 500 µM) of the same compound?
A: 1.57

Q: And the relative viability (CAL-12T; first compound 5 µM)?
A: 0.605

Q: And the relative viability (CAL-12T; first compound 15.81 µM)?
A: 0.532

Q: What about the relative viability (CAL-12T; first compound 50 µM) of the same compound?
A: 0.603

Q: What about the relative viability (CAL-12T; first compound 158.11 µM) of the same compound?
A: 0.551

Q: And the relative viability (CAL-12T; first compound 500 µM)?
A: 0.56

Q: What about the relative viability (A-427; first compound 5 µM) of the same compound?
A: 0.974

Q: What about the relative viability (A-427; first compound 15.81 µM) of the same compound?
A: 0.94

Q: And the relative viability (A-427; first compound 50 µM)?
A: 1.07

Q: And the relative viability (A-427; first compound 158.11 µM)?
A: 0.996

Q: What about the relative viability (A-427; first compound 500 µM) of the same compound?
A: 0.948

Q: And the relative viability (NCI-H2085; first compound 5 µM)?
A: 0.813

Q: What about the relative viability (NCI-H2085; first compound 15.81 µM) of the same compound?
A: 0.728

Q: And the relative viability (NCI-H2085; first compound 50 µM)?
A: 0.709

Q: And the relative viability (NCI-H2085; first compound 158.11 µM)?
A: 0.674

Q: And the relative viability (NCI-H2085; first compound 500 µM)?
A: 0.516

Q: And the relative viability (NCI-H1395; first compound 5 µM)?
A: 1.01

Q: What about the relative viability (NCI-H1395; first compound 15.81 µM) of the same compound?
A: 0.91

Q: And the relative viability (NCI-H1395; first compound 50 µM)?
A: 1.08

Q: What about the relative viability (NCI-H1395; first compound 158.11 µM) of the same compound?
A: 0.773

Q: What about the relative viability (NCI-H1395; first compound 500 µM) of the same compound?
A: 0.894

Q: And the relative viability (NCI-H358; first compound 5 µM)?
A: 0.416

Q: What about the relative viability (NCI-H358; first compound 15.81 µM) of the same compound?
A: 0.436

Q: What about the relative viability (NCI-H358; first compound 50 µM) of the same compound?
A: 0.409

Q: And the relative viability (NCI-H358; first compound 158.11 µM)?
A: 0.296

Q: What about the relative viability (NCI-H358; first compound 500 µM) of the same compound?
A: 0.0347

Q: And the relative viability (SK-MES-1; first compound 5 µM)?
A: 0.458

Q: And the relative viability (SK-MES-1; first compound 15.81 µM)?
A: 0.399

Q: And the relative viability (SK-MES-1; first compound 50 µM)?
A: 0.428

Q: What about the relative viability (SK-MES-1; first compound 158.11 µM) of the same compound?
A: 0.408

Q: And the relative viability (SK-MES-1; first compound 500 µM)?
A: 0.458

Q: And the relative viability (NCI-H1915; first compound 5 µM)?
A: 0.948

Q: And the relative viability (NCI-H1915; first compound 15.81 µM)?
A: 1.02

Q: What about the relative viability (NCI-H1915; first compound 50 µM) of the same compound?
A: 0.948

Q: What about the relative viability (NCI-H1915; first compound 158.11 µM) of the same compound?
A: 0.873

Q: What about the relative viability (NCI-H1915; first compound 500 µM) of the same compound?
A: 0.832

Q: What about the relative viability (LCLC-97TM1; first compound 5 µM) of the same compound?
A: 1.19

Q: And the relative viability (LCLC-97TM1; first compound 15.81 µM)?
A: 0.906

Q: What about the relative viability (LCLC-97TM1; first compound 50 µM) of the same compound?
A: 1.07

Q: And the relative viability (LCLC-97TM1; first compound 158.11 µM)?
A: 1.01

Q: And the relative viability (LCLC-97TM1; first compound 500 µM)?
A: 0.0553
